# Test results: publication PMC11677527, “Predicting Pharmacokinetics of Active Constituents in Spatholobi caulis by Using Physiologically Based Pharmacokinetic Models” (Pharmaceuticals, 2024)
# Like-named read-outs stand apart in the source and are kept apart here.
# Columns and labels:
# [1] = tested on: Caco-2 cell monolayer; parameters: method as in PMID 36680806, PMID 26501241; details: Caco-2 cell monolayer model; cited from earlier work
# [2] = Observed pharmacokinetics in rats after oral SPC (previous study); assay type: in vivo, rat; details: p.o. SPC
# [3] = parameters: method as in PMID 34303214; details: rats, p.o. SPC 30 g crude drug/kg; doses of 1-4: 0.062, 0.11, 0.71, 1.31 mg/kg; cited from earlier work
# [4] = Verification pharmacokinetic experiment in rats, SPC 60 g crude drug/kg by gavage, UFLC-MS/MS, DAS 2.0; assay type: in vivo, rat
# Description: To validate the accuracy of PBPK models in predicting the pharmacokinetics of SPC constituents at different oral doses, the pharmacokinetic behavior of these four constituents from SPC in rats were analyzed by UFLC-MS/MS. The parameters were calculated using Drug and Statistics Software version 2.0, and then these validated values (Val.) were used to check the accuracy of the Calc. values and evaluated by FE.
# The pharmacokinetic fitting results of rats given 60 g crude drug/kg body weight of SPC by gavage were verified by experiments. The verification experiment was conducted according to our previous pharmacokinetic study. In brief, 1.5 mL suspension of SPC was given to rats by oral administration; 300 μL blood samples from orbital venous at 0.083, 0.25, 0.5, 0.75, 1.0, 1.5, 2, 3, 4, 6, 8, and 12 h were collected and pretreated with heparin sodium. After centrifugation, the plasma samples were obtained and further processed for subsequent detection by UFLC-MS/MS; the detailed analysis method is shown in Supplementary Data (Table S1 and Figure S1). The concentration-time curve of each compound was gained, and the pharmacokinetic parameters were calculated using DAS 2.0 software (DAS 2.0, Mathematical Pharmacology Professional Committee of China, Shanghai, China). The results of these four constituents were compared with the PBPK parameters predicted in rats at an oral dose of 60 g crude drug/kg body weight of SPC.
# 1. The instrument and analytical conditions of UFLC-MS/MS method
# 4 constituents (1. 3′-methoxydadizein; 2. 8-O-methylretusin; 3. Daidzin; and 4. […]
# The internal standard (IS) carbamazepine with a purity of more than 99 % was purchased from Beijing JK-chemical technology Co. Ltd., (Beijing China). Heparin sodium was gained from Tianjin biochemical pharmaceutical Co. Ltd, (Tianjin, China).
# Ammonium acetate of HPLC grade, methanol and acetonitrile of LC-MS grade were purchased from Sigma (LOT# BCBK6717V, sigma-aldrich, Co., MO, USA) and Fisher (Fisher Corp., Fair lawn, NJ, USA) respectively. The experimental ultrapure water was prepared by Millipore Milli-Q ultrapure water preparation apparatus (Millipore Sigma, […]
# The detailed information of Shimadzu UFLC-MS/MS 8050 liquid mass system equipped with Nexera X2UFLC liquid chromatography system and 8050 triple quadrupole mass spectrometers with an electrospray ionization source were listed in our previous study. The supporting LabSolution workstation was used for data […]
# The separation without superposition of analytes in plasma sample was achieved on a Kinetex® C18 chromatographic column (100mm×2.1mm i.d.; 2.6 μm, 100 Å; Phenomenex, Inc., Torrance, CA, USA) assembled with a Phenomenex p/n AJ0-9000 C18 protection column. The mobile phase was consisted of 0.5 mM ammonium acetate in water (A) and ACN (B). The gradient elution program was selected ultimately as […]
# 95 % B (18.7–22 min). Column and automatic sampler temperature were set as 30 °C and 4 °C respectively. The flow rate of mobile phase was 0.35 mL/min while sample injection volume was 4 μL.
# Multiple reaction monitoring (MRM) of positive or negative modes were used as scanning modes for the analytes and IS. Other essential parameters were successively optimized as: Nebulizing gas flow, 3 L/min; Heating gas flow, 10 L/min; Drying gas flow, 10 L/min; Interface temperature, 300 °C; DL temperature, 250 °C; Interface and detector voltage were each set as 3.0 kV and 1.8 kV. The detection parameters such as retention time (RT), dwell time (DT), quadrupole 1 pre-rod bias (Q1), collision energy […]
# Table S1 The retention time and ion equivalent parameters of 4 constituents in rat […]
# Constituents Retention Precursor Precursor Product time Pre energy Pre time (min) ion species ion ion (msec) Bias (V) Bias
# [5] = compartment model parameters, DAS 2.0, rats p.o. SPC 60 g crude drug/kg, Mean, 5 rats
# [6] = statistical moment parameters, DAS 2.0, rats p.o. SPC 60 g crude drug/kg, Mean, 5 rats
# [7] = statistical moment parameters, DAS 2.0, rats p.o. SPC 60 g crude drug/kg, Mean, 5 rats, in µg·h²/mL
compound,measurement,setting,value
"O=c1c(-c2ccc(O)cc2)coc2cc(O[C@@H]3O[C@H](CO)[C@@H](O)[C@H](O)[C@H]3O)ccc12 [Constituent 3, daidzin]",Papp,[1],4 ×10⁻⁶ cm/s
same,time of slight secondary absorption peak,[2],6 h
same,AUC0→t Obs.,[3],28.4 ng·h/mL
same,AUC0→∞ Obs.,[3],30.5 ng·h/mL
same,Cmax Obs.,[3],15.1 ng/mL
same,Tmax Obs.,[3],0.21 h
same,K10,[4]; [5],0.981 h⁻¹
same,K12,[4]; [5],0.402 h⁻¹
same,K21,[4]; [5],0.15 h⁻¹
same,Ka,[4]; [5],16.131 h⁻¹
same,Tlag,[4]; [5],0 h
same,V1/F,[4]; [5],37.289 L/kg
same,t1/2Ka,[4]; [5],0.385 h
same,t1/2α,[4]; [5],0.868 h
same,concentration at 0.083 h,"[4]; rat, plasma, oral, time 0.083 h, rats p.o. SPC 60 g crude drug/kg, doses of 1-4: 0.124, 0.22, 1.4, 2.62 mg/kg, 5 rats",16.4 ng/mL
same,concentration at 0.25 h,"[4]; rat, plasma, oral, time 0.25 h, rats p.o. SPC 60 g crude drug/kg, doses of 1-4: 0.124, 0.22, 1.4, 2.62 mg/kg, 5 rats",28 ng/mL
same,concentration at 0.5 h,"[4]; rat, plasma, oral, time 0.5 h, rats p.o. SPC 60 g crude drug/kg, doses of 1-4: 0.124, 0.22, 1.4, 2.62 mg/kg, 5 rats",21 ng/mL
same,concentration at 0.75 h,"[4]; rat, plasma, oral, time 0.75 h, rats p.o. SPC 60 g crude drug/kg, doses of 1-4: 0.124, 0.22, 1.4, 2.62 mg/kg, 5 rats",18.4 ng/mL
same,concentration at 1 h,"[4]; rat, plasma, oral, time 1 h, rats p.o. SPC 60 g crude drug/kg, doses of 1-4: 0.124, 0.22, 1.4, 2.62 mg/kg, 5 rats",10.9 ng/mL
same,concentration at 1.5 h,"[4]; rat, plasma, oral, time 1.5 h, rats p.o. SPC 60 g crude drug/kg, doses of 1-4: 0.124, 0.22, 1.4, 2.62 mg/kg, 5 rats",5.55 ng/mL
same,concentration at 2 h,"[4]; rat, plasma, oral, time 2 h, rats p.o. SPC 60 g crude drug/kg, doses of 1-4: 0.124, 0.22, 1.4, 2.62 mg/kg, 5 rats",3.16 ng/mL
same,concentration at 3 h,"[4]; rat, plasma, oral, time 3 h, rats p.o. SPC 60 g crude drug/kg, doses of 1-4: 0.124, 0.22, 1.4, 2.62 mg/kg, 5 rats",2.62 ng/mL
same,concentration at 4 h,"[4]; rat, plasma, oral, time 4 h, rats p.o. SPC 60 g crude drug/kg, doses of 1-4: 0.124, 0.22, 1.4, 2.62 mg/kg, 5 rats",1.56 ng/mL
same,concentration at 6 h,"[4]; rat, plasma, oral, time 6 h, rats p.o. SPC 60 g crude drug/kg, doses of 1-4: 0.124, 0.22, 1.4, 2.62 mg/kg, 5 rats",1.39 ng/mL
same,concentration at 8 h,"[4]; rat, plasma, oral, time 8 h, rats p.o. SPC 60 g crude drug/kg, doses of 1-4: 0.124, 0.22, 1.4, 2.62 mg/kg, 5 rats",1.18 ng/mL
same,AUC(0-t),"[4]; rat, plasma, po, 1.4 mg/kg, compartment model parameters, DAS 2.0, rats p.o. SPC 60 g crude drug/kg, Mean, 5 rats, read-out: AUC(0-t)",37.1 ng·h/mL
same,AUC(0-inf),"[4]; rat, plasma, po, 1.4 mg/kg, compartment model parameters, DAS 2.0, rats p.o. SPC 60 g crude drug/kg, Mean, 5 rats, read-out: AUC(0-∞)",39.5 ng·h/mL
same,CL/F,"[4]; rat, plasma, po, 1.4 mg/kg, compartment model parameters, DAS 2.0, rats p.o. SPC 60 g crude drug/kg, Mean, 5 rats, read-out: CL/F (converted)",594 mL/min/kg
same,half-life,"[4]; rat, plasma, po, 1.4 mg/kg, compartment model parameters, DAS 2.0, rats p.o. SPC 60 g crude drug/kg, Mean, 5 rats, read-out: t1/2β (converted)",36.5 h
same,AUC(0-t),"[4]; rat, plasma, po, 1.4 mg/kg, statistical moment parameters, DAS 2.0, rats p.o. SPC 60 g crude drug/kg, Mean, 5 rats, read-out: AUC(0-t)",35.5 ng·h/mL
same,AUC(0-inf),"[4]; rat, plasma, po, 1.4 mg/kg, statistical moment parameters, DAS 2.0, rats p.o. SPC 60 g crude drug/kg, Mean, 5 rats, read-out: AUC(0-∞)",35.9 ng·h/mL
same,CL/F,"[4]; rat, plasma, po, 1.4 mg/kg, statistical moment parameters, DAS 2.0, rats p.o. SPC 60 g crude drug/kg, Mean, 5 rats, read-out: CLz/F (converted)",652 mL/min/kg
same,MRT last,"[4]; rat, plasma, po, 1.4 mg/kg, statistical moment parameters, DAS 2.0, rats p.o. SPC 60 g crude drug/kg, Mean, 5 rats, read-out: MRT(0-t)",1.83 h
same,MRT inf,"[4]; rat, plasma, po, 1.4 mg/kg, statistical moment parameters, DAS 2.0, rats p.o. SPC 60 g crude drug/kg, Mean, 5 rats, read-out: MRT(0-∞)",2.09 h
same,Tmax,"[4]; rat, plasma, po, 1.4 mg/kg, statistical moment parameters, DAS 2.0, rats p.o. SPC 60 g crude drug/kg, Mean, 5 rats, read-out: Tmax",0.25 h
same,Vd/F,"[4]; rat, plasma, po, 1.4 mg/kg, statistical moment parameters, DAS 2.0, rats p.o. SPC 60 g crude drug/kg, Mean, 5 rats, read-out: Vz/F",103 L/kg
same,half-life,"[4]; rat, plasma, po, 1.4 mg/kg, statistical moment parameters, DAS 2.0, rats p.o. SPC 60 g crude drug/kg, Mean, 5 rats, read-out: t1/2z (converted)",1.82 h
same,AUC(0-t),"[4]; rat, plasma, po, 2.62 mg/kg, rats, p.o. SPC 60 g crude drug/kg, doses of 1-4: 0.124, 0.22, 1.42, 2.62 mg/kg, n = 5, read-out: AUC0→t Val.",35.5 ng·h/mL
same,AUC(0-inf),"[4]; rat, plasma, po, 2.62 mg/kg, rats, p.o. SPC 60 g crude drug/kg, doses of 1-4: 0.124, 0.22, 1.42, 2.62 mg/kg, n = 5, read-out: AUC0→∞ Val.",35.9 ng·h/mL
same,Tmax,"[4]; rat, plasma, po, rats, p.o. SPC 60 g crude drug/kg, doses of 1-4: 0.124, 0.22, 1.42, 2.62 mg/kg, n = 5, read-out: Tmax Val.",0.25 h
same,Cmax,[4]; [6],27.183 ng/mL
same,Cz,[4]; [6],0.117 µg/L
same,VRT(0-t),[4]; [6],4.934 h^2
same,VRT(0-∞),[4]; [6],8.138 h^2
same,elimination rate constant,[4]; [6],0.429 h⁻¹
same,AUMC(0-t),[4]; [7],65.207
same,AUMC(0-∞),[4]; [7],75.236
